Measurements published in US12257237B2 (priority 2017, dated 2025).
Several values for one entry are separate records, joined by “and”; a condition that tells them apart may be missing. Identical values can stand only once.

Assay: Drug tolerability (body weight) in DD013 dedifferentiated liposarcoma xenograft model
Format: in vivo, Athymic nude mice
Design: key to Animal status: †: sacrificed moribund
Settings: for Mouse body weight: individual mice
Procedure: Experiments were performed with female Athymic nude mice, 9-10 weeks old obtained from Harlan Laboratories (Udine, Italy). They were maintained under Specific Pathogen Free conditions with constant temperature and humidity, according to the institutional guidelines.
Tumour growth mice was monitored two/three times a week (depending on tumour growth rate, to avoid unnecessary stress to the animals) by Vernier caliper. Mice were sacrificed when tumour reached a mean weight of 2±0.5 gr. The antitumour activity will be expressed as T/C %, where T and C were the mean tumour weight of treated and control groups, respectively. Mice were monitored daily and weighted at least two times a week. Tolerability was evaluated on the basis of body weight loss (BWL) and clinical observation.

[1] = EDO40 (40 mg/kg), day 23 from inoculum
[2] = EDO40 (40 mg/kg), day 26 from inoculum
[3] = EDO40 (40 mg/kg), day 33 from inoculum
[4] = EDO40 (40 mg/kg), day 36 from inoculum
[5] = EDO40 (40 mg/kg), day 40 from inoculum
[6] = EDO40 (40 mg/kg), day 43 from inoculum
[7] = EDO40 (40 mg/kg), day 50 from inoculum
[8] = EDO40 (40 mg/kg), day 54 from inoculum
[9] = EDO40 (40 mg/kg), day 58 from inoculum
[10] = EDO40 (40 mg/kg), day 62 from inoculum
[11] = EDO40 (40 mg/kg), day 65 from inoculum
[12] = EDO40 (40 mg/kg), day 69 from inoculum
[13] = EDO40 (40 mg/kg), day 72 from inoculum
[14] = EDO40 (40 mg/kg), day 75 from inoculum
[15] = EDO40 (40 mg/kg), day 79 from inoculum
[16] = EDO40 (40 mg/kg), day 83 from inoculum
[17] = EDO40 (40 mg/kg), day 87 from inoculum
[18] = EDO40 (40 mg/kg), day 90 from inoculum
[19] = EDO40 (40 mg/kg), day 94 from inoculum
[20] = EDO40 (40 mg/kg), day 98 from inoculum
[21] = EDO40 (40 mg/kg), day 100 from inoculum
[22] = EDO60 (60 mg/kg), day 23 from inoculum
[23] = EDO60 (60 mg/kg), day 26 from inoculum
[24] = EDO60 (60 mg/kg), day 29 from inoculum
[25] = EDO60 (60 mg/kg), day 33 from inoculum
[26] = EDO60 (60 mg/kg), day 36 from inoculum
[27] = EDO60 (60 mg/kg), day 40 from inoculum
[28] = EDO80 (80 mg/kg), day 23 from inoculum
[29] = EDO80 (80 mg/kg), day 26 from inoculum
[30] = EDO80 (80 mg/kg), day 29 from inoculum
[31] = EDO80 (80 mg/kg), day 33 from inoculum
[32] = EDO80 (80 mg/kg), day 36 from inoculum
[33] = EDO80 (80 mg/kg), day 40 from inoculum
[34] = EDO80 (80 mg/kg), day 43 from inoculum
[35] = EDO80 (80 mg/kg), day 47 from inoculum
[36] = EDO80 (80 mg/kg), day 50 from inoculum
[37] = EDO80 (80 mg/kg), day 54 from inoculum
[38] = EDO80 (80 mg/kg), day 58 from inoculum
[39] = EDO80 (80 mg/kg), day 62 from inoculum
[40] = EDO80 (80 mg/kg), day 65 from inoculum
[41] = EDO80 (80 mg/kg), day 69 from inoculum
[42] = EDO80 (80 mg/kg), day 72 from inoculum
[43] = EDO80 (80 mg/kg), day 75 from inoculum
[44] = EDO80 (80 mg/kg), day 79 from inoculum
[45] = EDO80 (80 mg/kg), day 83 from inoculum
[46] = EDO80 (80 mg/kg), day 87 from inoculum
[47] = EDO80 (80 mg/kg), day 90 from inoculum
[48] = EDO80 (80 mg/kg), day 94 from inoculum
[49] = EDO80 (80 mg/kg), day 98 from inoculum
[50] = EDO80 (80 mg/kg), day 100 from inoculum
[51] = EDO80 (80 mg/kg), day 103 from inoculum

## Cn1c(CCCCCCC(=O)NO)nc2cc(N(CCCl)CCCl)ccc21 [EDO-S101, 7-(5-(bis(2-chloroethyl)amino)-1-methyl-1H-benzo[d]imidazol-2-yl)-N-hydroxyheptanamide]
80 mg/kg group, between day 75 and 79 from inoculum
  rapid BWL of one mouse (sacrificed): > 30%
[1]
  BWL %: 0.0%
  Mouse body weight, Mean: 23.6 g
[2]
  BWL %: −1.7%
  Mouse body weight, Mean: 23.2 g
EDO40 (40 mg/kg), day 29 from inoculum
  Mouse body weight, Mean: 24.7 g
[3]
  BWL %: 2.4%
  Mouse body weight, Mean: 24.2 g
[4]
  BWL %: 4.1%
  Mouse body weight, Mean: 24.6 g
[5]
  BWL %: 6.1%
  Mouse body weight, Mean: 25.0 g
[6]
  BWL %: 6.2%
  Mouse body weight, Mean: 25.1 g
EDO40 (40 mg/kg), day 47 from inoculum
  Mouse body weight, Mean: 26.0 g
[7]
  BWL %: 11.7%
  Mouse body weight, Mean: 26.4 g
[8]
  BWL %: 10.1%
  Mouse body weight, Mean: 26.0 g
[9]
  BWL %: 8.3%
  Mouse body weight, Mean: 25.6 g
[10]
  BWL %: 11.0%
  Mouse body weight, Mean: 26.2 g
[11]
  BWL %: 9.1%
  Mouse body weight, Mean: 25.8 g
[12]
  BWL %: 13.3%
  Mouse body weight, Mean: 26.8 g
[13]
  BWL %: 13.3%
  Mouse body weight, Mean: 26.8 g
[14]
  BWL %: 15.6%
  Mouse body weight, Mean: 27.3 g
[15]
  BWL %: 13.8%
  Mouse body weight, Mean: 26.9 g
[16]
  BWL %: 14.3%
  Mouse body weight, Mean: 27.0 g
[17]
  BWL %: 14.4%
  Mouse body weight, Mean: 27.0 g
[18]
  BWL %: 17.9%
  Mouse body weight, Mean: 27.8 g
[19]
  BWL %: 16.0%
  Mouse body weight, Mean: 27.4 g
[20]
  BWL %: 18.3%
  Mouse body weight, Mean: 27.9 g
[21]
  BWL %: 15.7%
  Mouse body weight, Mean: 27.3 g
[22]
  BWL %: 0.0%
  Mouse body weight, Mean: 23.3 g
[23]
  BWL %: −4.5%
  Mouse body weight, Mean: 22.3 g
[24]
  BWL %: 1.7%
  Mouse body weight, Mean: 23.7 g
[25]
  BWL %: −0.8%
  Mouse body weight, Mean: 23.1 g
[26]
  BWL %: 2.5%
  Mouse body weight, Mean: 23.9 g
[27]
  BWL %: −0.6%
  Mouse body weight, Mean: 23.2 g
EDO60 (60 mg/kg), day 43 from inoculum
  Mouse body weight, Mean: 24.1 g
EDO60 (60 mg/kg), day 47 from inoculum
  Mouse body weight, Mean: 25.2 g
EDO60 (60 mg/kg), day 50 from inoculum
  Mouse body weight, Mean: 25.3 g
EDO60 (60 mg/kg), day 54 from inoculum
  Mouse body weight, Mean: 25.6 g
EDO60 (60 mg/kg), day 58 from inoculum
  Mouse body weight, Mean: 25.5 g
EDO60 (60 mg/kg), day 62 from inoculum
  Mouse body weight, Mean: 25.5 g
EDO60 (60 mg/kg), day 69 from inoculum
  Mouse body weight, Mean: 25.9 g
EDO60 (60 mg/kg), day 72 from inoculum
  Mouse body weight, Mean: 26.3 g
EDO60 (60 mg/kg), day 75 from inoculum
  Mouse body weight, Mean: 26.0 g
EDO60 (60 mg/kg), day 79 from inoculum
  Mouse body weight, Mean: 24.8 g
EDO60 (60 mg/kg), day 83 from inoculum
  Mouse body weight, Mean: 24.5 g
EDO60 (60 mg/kg), day 87 from inoculum
  Mouse body weight, Mean: 24.6 g
EDO60 (60 mg/kg), day 90 from inoculum
  Mouse body weight, Mean: 24.8 g
EDO60 (60 mg/kg), day 94 from inoculum
  Mouse body weight, Mean: 25.3 g
EDO60 (60 mg/kg), day 98 from inoculum
  Mouse body weight, Mean: 26.2 g
EDO60 (60 mg/kg), day 111 from inoculum
  Mouse body weight, Mean: 25.6 g
EDO60 (60 mg/kg), day 114 from inoculum
  Mouse body weight, Mean: 25.3 g
EDO60 (60 mg/kg), day 118 from inoculum
  Mouse body weight, Mean: 25.5 g
[28]
  BWL %: 0.0%
  Mouse body weight, Mean: 24.2 g
  Mouse body weight: 26.1 g and 25.7 g and 25 g and 23.1 g and 24 g and 26.2 g and 22.4 g and 22.3 g
[29]
  BWL %: −3.4%
  Mouse body weight, Mean: 21.9 g
  Mouse body weight: 23.4 g and 23.6 g and 22 g and 21.3 g and 20.9 g and 20.1 g and 22.4 g and 21.6 g and 21.9 g
[30]
  BWL %: 4.2%
  Mouse body weight, Mean: 21.7 g
  Mouse body weight: 22.7 g and 22.6 g and 21.5 g and 22.2 g and 21 g (3×) and 21.6 g (2×)
[31]
  BWL %: 1.3%
  Mouse body weight, Mean: 23.7 g
  Mouse body weight: 25.1 g (2×) and 24 g and 23.1 g and 21.9 g and 22.5 g
[32]
  BWL %: 5.9%
  Mouse body weight, Mean: 25.5 g
  Mouse body weight: 27 g and 25.3 g and 24.7 g and 23.8 g and 26.3 g and 24.2 g and 24.6 g
[33]
  BWL %: 2.5%
  Mouse body weight: 28.6 g and 27 g and 25.7 g and 24.4 g (2×) and 27.9 g and 24 g
[34]
  BWL %: 8.0%
  Mouse body weight, Mean: 25.8 g
  Mouse body weight: 28.5 g and 26.5 g and 25 g (2×) and 26.9 g and 24.2 g and 24.4 g
[35]
  BWL %: 5.9%
  Mouse body weight, Mean: 25.9 g
  Mouse body weight: 27.9 g and 26.1 g and 24.6 g (2×) and 24.2 g and 27.4 g and 24.4 g
[36]
  BWL %: 7.6%
  Mouse body weight, Mean: 25.8 g
  Mouse body weight: 27.9 g and 26.8 g and 24.6 g and 24.4 g and 26.3 g and 23.2 g and 25.3 g
[37]
  BWL %: 8.0%
  Mouse body weight, Mean: 26.2 g
  Mouse body weight: 27.7 g and 26.7 g and 25.8 g and 25 g (2×) and 28 g and 24.8 g
[38]
  BWL %: 12.2%
  Mouse body weight, Mean: 27.0 g
  Mouse body weight: 28.7 g and 29.8 g and 28 g and 27.4 g and 26.9 g and 25 g (2×)
[39]
  BWL %: 8.4%
  Mouse body weight, Mean: 23.5 g
  Mouse body weight: 25.7 g and 24.4 g and 23.9 g and 24 g and 22.7 g and 21.9 g and 23.7 g and 23.8 g and 21.4 g
[40]
  BWL %: 8.0%
  Mouse body weight, Mean: 23.9 g
[41]
  BWL %: 6.3%
  Mouse body weight, Mean: 25.2 g
  Mouse body weight: 28.7 g
[42]
  BWL %: 9.7%
  Mouse body weight, Mean: 25.9 g
  Mouse body weight: 30.7 g
[43]
  BWL %: 13.9%
  Mouse body weight, Mean: 26.4 g
  Mouse body weight: 30.6 g
[44]
  BWL %: 8.8%
  Mouse body weight, Mean: 24.6 g
  Mouse body weight: 28.7 g
[45]
  BWL %: 7.6%
  Mouse body weight, Mean: 24.1 g
  Mouse body weight: 24.1 g
EDO80 (80 mg/kg), day 83 from inoculum, mouse # 56
  Animal status: †
[46]
  BWL %: 5.0%
  Mouse body weight, Mean: 23.8 g
  Mouse body weight: 25.3 g
[47]
  BWL %: 2.9%
  Mouse body weight, Mean: 25.4 g
  Mouse body weight: 29.2 g
[48]
  BWL %: 0.0%
  Mouse body weight, Mean: 27.4 g
[49]
  BWL %: 2.9%
  Mouse body weight, Mean: 28.0 g
  Mouse body weight: 31.1 g
[50]
  BWL %: 0.4%
  Mouse body weight, Mean: 27.5 g
  Mouse body weight: 29.7 g
[51]
  BWL %: −0.8%
  Mouse body weight, Mean: 27.3 g
  Mouse body weight: 25.9 g
All doses and schedules
  BWL: < 5%
